The values below come from patent US20260226068A1, “IMIDAZOTRIAZINE IL-17A MODULATORS AND USES THEREOF” (DICE ALPHA, INC., priority 2023, published 2026).

The target in one experiment is T1, IL-17A/A (Homo sapiens, UniProt Q16552).
T1 construct: purchased Genscript Z03228
T1 sequence (Q16552 24-155): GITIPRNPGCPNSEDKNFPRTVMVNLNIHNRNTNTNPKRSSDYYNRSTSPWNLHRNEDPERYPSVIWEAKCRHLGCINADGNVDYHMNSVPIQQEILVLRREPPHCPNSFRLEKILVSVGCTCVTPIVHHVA
The experiment in a line: IL-17A/A HEK-Blue cell assay (SEAP reporter). It is filed as cell-based. Conditions: HEK-Blue IL-17A reporter cells, IL17A/A 5 ng/mL, 20 hours, SEAP read at A630; read-out: HEK-Blue IL17AA (IC50 for IL-17A/A inhibition).

For the next experiment, the target named is T2, IL-17A/F (Homo sapiens, UniProt Q16552+Q96PD4).
T2 construct: purchased R&D Systems
T2 sequence (Q16552 24-155): T1 sequence (Q16552 24-155)
T2 sequence (Q96PD4 31-163): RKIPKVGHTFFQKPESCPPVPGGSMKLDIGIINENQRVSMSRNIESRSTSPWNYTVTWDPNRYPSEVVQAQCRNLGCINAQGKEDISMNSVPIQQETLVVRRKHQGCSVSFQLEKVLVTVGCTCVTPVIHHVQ
Kind of experiment: IL-17A/F HEK-Blue cell assay (SEAP reporter). It is filed as cell-based. Conditions: HEK-Blue IL-17A reporter cells, IL17A/F 5 ng/mL, 20 hours, SEAP read at A630; read-out: HEK-Blue IL17AF (IC50 for IL-17A/F inhibition).

pIC50: −log10 of the molar value.

For `CCn1nccc1C(=O)N[C@H](c1cn2nc(C[C@H]3C[C@@H](C(F)(F)F)CNC3=O)c([C@@H]3CCCCN3)nc2n1)C1CCC(F)(F)CC1` (single isomer, unassigned) [Compound 324], the pIC50 is 6.00 to 7.00 on IL-17A/A and less than 6.00 on IL-17A/F.

Consider `CCn1nccc1C(=O)N[C@H](c1cn2nc(C[C@H]3C[C@@H](C(F)(F)F)CNC3=O)c([C@H]3CCCCN3)nc2n1)C1CCC(F)(F)CC1` (single isomer, unassigned) [Compound 325], for which the pIC50 at IL-17A/A was 6.00 to 7.00; at IL-17A/F, less than 6.00.

Take `CCn1nccc1C(=O)N[C@H](c1cn2nc(C[C@H]3C[C@@H](C(F)(F)F)CNC3=O)c([C@@H]3CN(C)CCO3)nc2n1)C1CCC(F)(F)CC1` (single isomer, unassigned) [Compound 376]: the figures for the pIC50 at IL-17A/A and on IL-17A/F were greater than 7.00 and less than 6.00, respectively.

As for `CCn1nccc1C(=O)N[C@H](c1cn2nc(C[C@H]3C[C@@H](C(F)(F)F)CNC3=O)c([C@H](C)N3CCOCC3)nc2n1)C1CCC(F)(F)CC1` (single isomer, unassigned) [Compound 381], the pIC50 was 6.00 to 7.00 at IL-17A/A and less than 6.00 at IL-17A/F.

For the compound `CCn1nccc1C(=O)N[C@H](c1cn2nc(C[C@H]3C[C@@H](C(F)(F)F)CNC3=O)c([C@H]3CN(C)CCO3)nc2n1)C1CCC(F)(F)CC1` (single isomer, unassigned) [Compound 382], the figures for the pIC50 at IL-17A/A and on IL-17A/F were greater than 7.00 and less than 6.00, respectively.

Turning to `CCn1nccc1C(=O)N[C@H](c1cn2nc(C[C@H]3C[C@@H](C(F)(F)F)CNC3=O)c(C3Cc4cncnc4C3)nc2n1)C1CCC(F)(F)CC1` (single isomer, unassigned) [Compound 400], the pIC50 on IL-17A/A is greater than 7.00; on IL-17A/F, 6.00 to 7.00.

For `CCn1nccc1C(=O)N[C@H](c1cn2nc(C[C@H]3C[C@@H](C(F)(F)F)CNC3=O)c([C@@H]3CCCN(C)C3)nc2n1)C1CCC(F)(F)CC1` (single isomer, unassigned) [Compound 401], the pIC50 on IL-17A/A was 6.00 to 7.00; at IL-17A/F, less than 6.00.

Take `CCn1nccc1C(=O)N[C@H](c1cn2nc(C[C@H]3C[C@@H](C(F)(F)F)CNC3=O)c(C3Cc4cncnc4C3)nc2n1)C1CCC(F)(F)CC1` (single isomer, unassigned) [Compound 402]: the pIC50 is greater than 7.00 at IL-17A/A and 6.00 to 7.00 on IL-17A/F.

As to `CCn1nccc1C(=O)N[C@H](c1cn2nc(C[C@H]3C[C@@H](C(F)(F)F)CNC3=O)c(C3CCCN(C)C3)nc2n1)C1CCC(F)(F)CC1` (single isomer, unassigned) [Compound 403], the pIC50 is greater than 7.00 at IL-17A/A and less than 6.00 on IL-17A/F.

With `CCn1nccc1C(=O)N[C@H](c1cn2nc(C[C@H]3C[C@@H](C(F)(F)F)CNC3=O)c(C3COCCN3C)nc2n1)C1CCC(F)(F)CC1` (single isomer, unassigned) [Compound 404], the pIC50 at IL-17A/A was 6.00 to 7.00; at IL-17A/F, less than 6.00.

On to `CCn1nccc1C(=O)N[C@H](c1cn2nc(C[C@H]3C[C@@H](C(F)(F)F)CNC3=O)c(N3CCN(C)[C@H](C4CC4)C3)nc2n1)C1CCC(F)(F)CC1` (single isomer, unassigned) [Compound 431], for which the values for the pIC50 on IL-17A/A and at IL-17A/F were greater than 7.00 and 6.00 to 7.00, respectively.

For the compound `CCn1nccc1C(=O)N[C@H](c1cn2nc(C[C@H]3C[C@@H](C(F)(F)F)CNC3=O)c(N3CCN(C)C(C4CC4)C3)nc2n1)C1CCC(F)(F)CC1` (single isomer, unassigned) [Compound 432], the pIC50 on IL-17A/A was greater than 7.00; at IL-17A/F, 6.00 to 7.00.

Consider `CCn1nccc1C(=O)N[C@H](c1cn2nc(C[C@H]3C[C@@H](C(F)(F)F)CNC3=O)c(C3CCN(C)C3)nc2n1)C1CCC(F)(F)CC1` (single isomer, unassigned) [Compound 439], for which the pIC50 was 6.00 to 7.00 on IL-17A/A and less than 6.00 on IL-17A/F.

Regarding `CCn1nccc1C(=O)N[C@H](c1cn2nc(CC3C[C@@H](C(F)(F)F)CNC3=O)c(C3CCOCC3)nc2n1)C1CCC(F)(F)CC1` (stereo in doubt) [Compound 89, N-((1S)-(4,4-difluorocyclohexyl)(2-(((3R,5R)-2-oxo-5-(trifluoromethyl)piperidin-3-yl)methyl)-3-(tetrahydro-2H-pyran-4-yl)imidazo[1,2-b][1,2,4]triazin-6-yl)methyl)-1-ethyl-1H-pyrazole-5-carboxamide], the pIC50 at IL-17A/A was greater than 7.00; on IL-17A/F, less than 6.00.

With `CCn1ncnc1C(=O)N[C@H](c1cn2nc(C[C@H]3C[C@@H](C(F)(F)F)CNC3=O)c(C3CCOCC3)nc2n1)C1CCCC(F)(F)C1` (stereo in doubt) [Compound 384, N—((S)—((S)-3,3-difluorocyclohexyl)(2-(((3R,5R)-2-oxo-5-(trifluoromethyl)piperidin-3-yl)methyl)-3-(tetrahydro-2H-pyran-4-yl)imidazo[1,2-b][1,2,4]triazin-6-yl)methyl)-1-ethyl-1H-1,2,4-triazole-5-carboxamide], the values for the pIC50 on IL-17A/A and on IL-17A/F were greater than 7.00 and less than 6.00, respectively.

Take `Cn1nccc1C(=O)N[C@H](c1cn2nc(CC3C[C@@H](C(F)(F)F)CNC3=O)cnc2n1)C1CCC(F)(F)CC1` (stereo partly drawn) [Compound 3, N—((S)-(4,4-difluorocyclohexyl)(2-(((5R)-2-oxo-5-(trifluoromethyl)piperidin-3-yl)methyl)imidazo[1,2-b][1,2,4]triazin-6-yl)methyl)-1-methyl-1H-pyrazole-5-carboxamide]: the results for the pIC50 on IL-17A/A and on IL-17A/F were 6.00 to 7.00 and less than 6.00, respectively.

`CC(C)n1nccc1C(=O)N[C@H](c1cn2nc(CC3C[C@@H](C(F)(F)F)CNC3=O)cnc2n1)C1CCC(F)(F)CC1` (stereo partly drawn) [Compound 6, N—((S)-(4,4-difluorocyclohexyl)(2-(((5R)-2-oxo-5-(trifluoromethyl)piperidin-3-yl)methyl)imidazo[1,2-b][1,2,4]triazin-6-yl)methyl)-1-isopropyl-1H-pyrazole-5-carboxamide]: the pIC50 was greater than 7.00 on IL-17A/A and less than 6.00 at IL-17A/F.

For `O=C(N[C@H](c1cn2nc(CC3C[C@@H](C(F)(F)F)CNC3=O)cnc2n1)C1CCC(F)(F)CC1)c1conc1CCF` (stereo partly drawn) [Compound 7, N—((S)-(4,4-difluorocyclohexyl)(2-(((5R)-2-oxo-5-(trifluoromethyl)piperidin-3-yl)methyl)imidazo[1,2-b][1,2,4]triazin-6-yl)methyl)-3-(2-fluoroethyl)isoxazole-4-carboxamide], the pIC50 on IL-17A/A was 6.00 to 7.00; on IL-17A/F, less than 6.00.

For the compound `CC(C)c1nocc1C(=O)N[C@H](c1cn2nc(CC3C[C@@H](C(F)(F)F)CNC3=O)cnc2n1)C1CCC(F)(F)CC1` (stereo partly drawn) [Compound 8, N—((S)-(4,4-difluorocyclohexyl)(2-(((5R)-2-oxo-5-(trifluoromethyl)piperidin-3-yl)methyl)imidazo[1,2-b][1,2,4]triazin-6-yl)methyl)-3-isopropylisoxazole-4-carboxamide], the figures for the pIC50 at IL-17A/A and on IL-17A/F were 6.00 to 7.00 and less than 6.00, respectively.

In the case of `O=C(N[C@H](c1cn2nc(CC3C[C@@H](C(F)(F)F)CNC3=O)cnc2n1)C1CCC(F)(F)CC1)c1conc1C1CC1` (stereo partly drawn) [Compound 9, 3-cyclopropyl-N—((S)-(4,4-difluorocyclohexyl)(2-(((5R)-2-oxo-5-(trifluoromethyl)piperidin-3-yl)methyl)imidazo[1,2-b][1,2,4]triazin-6-yl)methyl)isoxazole-4-carboxamide], the results for the pIC50 at IL-17A/A and on IL-17A/F were greater than 7.00 and less than 6.00, respectively.

Consider `O=C(N[C@H](c1cn2nc(CC3C[C@@H](C(F)(F)F)CNC3=O)cnc2n1)C1CCC(F)(F)CC1)c1conc1C(F)(F)F` (stereo partly drawn) [Compound 10, N—((S)-(4,4-difluorocyclohexyl)(2-(((5R)-2-oxo-5-(trifluoromethyl)piperidin-3-yl)methyl)imidazo[1,2-b][1,2,4]triazin-6-yl)methyl)-3-(trifluoromethyl)isoxazole-4-carboxamide], for which the pIC50 was 6.00 to 7.00 on IL-17A/A and less than 6.00 at IL-17A/F.

As for `CCc1nonc1C(=O)N[C@H](c1cn2nc(CC3C[C@@H](C(F)(F)F)CNC3=O)cnc2n1)C1CCC(F)(F)CC1` (stereo partly drawn) [Compound 11, N—((S)-(4,4-difluorocyclohexyl)(2-(((5R)-2-oxo-5-(trifluoromethyl)piperidin-3-yl)methyl)imidazo[1,2-b][1,2,4]triazin-6-yl)methyl)-4-ethyl-1,2,5-oxadiazole-3-carboxamide], the figures for the pIC50 at IL-17A/A and on IL-17A/F were 6.00 to 7.00 and less than 6.00, respectively.

Consider `CC(C)c1nonc1C(=O)N[C@H](c1cn2nc(CC3C[C@@H](C(F)(F)F)CNC3=O)cnc2n1)C1CCC(F)(F)CC1` (some centres unmarked) [Compound 12], for which the pIC50 on IL-17A/A is greater than 7.00; at IL-17A/F, less than 6.00.

With `O=C(N[C@H](c1cn2nc(CC3C[C@@H](C(F)(F)F)CNC3=O)cnc2n1)C1CCC(F)(F)CC1)c1nonc1C1CC1` (stereo partly drawn) [Compound 13, 4-cyclopropyl-N—((S)-(4,4-difluorocyclohexyl)(2-(((5R)-2-oxo-5-(trifluoromethyl)piperidin-3-yl)methyl)imidazo[1,2-b][1,2,4]triazin-6-yl)methyl)-1,2,5-oxadiazole-3-carboxamide], the pIC50 is greater than 7.00 on IL-17A/A and less than 6.00 at IL-17A/F.

For the compound `CC(C)n1nccc1C(=O)N[C@H](c1cn2nc(CC3C[C@H](C(F)(F)F)CNC3=O)cnc2n1)C1CCC(F)(F)CC1` (stereo partly drawn) [Compound 15, N—((S)-(4,4-difluorocyclohexyl)(2-(((5S)-2-oxo-5-(trifluoromethyl)piperidin-3-yl)methyl)imidazo[1,2-b][1,2,4]triazin-6-yl)methyl)-1-isopropyl-1H-pyrazole-5-carboxamide], the figures for the pIC50 at IL-17A/A and on IL-17A/F were 6.00 to 7.00 and less than 6.00, respectively.
